From ChEMBL document CHEMBL1201862, “PubChem BioAssay data set” (2004)
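48-hour exposure; five concentrations; linearly interpolated endpoints. Here, GI50 denotes the concentration required for 50% inhibition of growth.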 Calls of active or inactive are those of the source. No stated cut-off is given here; in the data, active = GI50 up to about 1.1 µM and inactive = higher.

Columns and labels:
Assay in all cases: NCI anticancer screen, dose series, 48 h
CAKI-1 = system: CAKI-1
CCRF-CEM = system: CCRF-CEM
HCT-116 = system: HCT-116
HCT-15 = system: HCT-15
Hs-578T = system: Hs-578T
MDA-MB-435 = system: MDA-MB-435
NCI-H460 = system: NCI-H460
OVCAR-4 = system: OVCAR-4
PC-3 = system: PC-3
SF-268 = system: SF-268
SK-MEL-28 = system: SK-MEL-28
SK-OV-3 = system: SK-OV-3
SN12C = system: SN12C
SR = system: SR
T47D = system: T47D
TK-10 = system: TK-10
UACC-257 = system: UACC-257
UO-31 = system: UO-31
HL-60 = system: HL-60

SMILES	GI50 (CAKI-1)	GI50 (CCRF-CEM)	GI50 (HCT-116)	GI50 (HCT-15) [µM]	GI50 (Hs-578T)	GI50 (MDA-MB-435)	GI50 (NCI-H460)	GI50 (OVCAR-4)	GI50 (PC-3)	GI50 (SF-268)	GI50 (SK-MEL-28)	GI50 (SK-OV-3)	GI50 (SN12C)	GI50 (SR)	GI50 (T47D)	GI50 (TK-10)	GI50 (UACC-257)	GI50 (UO-31)	GI50 (HL-60)
CN1C(=O)c2ccccc2C(O)(c2ccccc2)C1(O)c1ccccc1 (stereo unspecified)	43.4 µM (inactive)	> 100 µM (inactive)	95.3 µM (inactive)	> 100	29.2 µM (inactive)	> 100 µM (inactive)	19.2 µM (inactive)	72.8 µM (inactive)	52.6 µM (inactive)	55.5 µM (inactive)	> 100 µM (inactive)	52.4 µM (inactive)	> 100 µM (inactive)	43 µM (inactive)	61.2 µM (inactive)	68.7 µM (inactive)	> 100 µM (inactive)	32.5 µM (inactive)	
CCOC(=O)[C@H](C)OC(=O)[C@@](C)(NC(=O)c1ccccc1C(=O)OC)[C@@H]1NC=C(C(=O)OC)CS1	> 100 µM (inactive)	20.3 µM (inactive)	> 100 µM (inactive)	> 100	> 100 µM (inactive)	27.6 µM (inactive)	80.4 µM (inactive)	> 100 µM (inactive)	> 100 µM (inactive)	> 100 µM (inactive)	> 100 µM (inactive)	> 100 µM (inactive)	> 100 µM (inactive)	20.4 µM (inactive)	91.2 µM (inactive)	> 100 µM (inactive)	> 100 µM (inactive)	> 100 µM (inactive)	
CC(C)(C)OC(=O)n1c(Cl)c(C=O)c2ccccc21	17.2 µM (inactive)	27.9 µM (inactive)		27.1	34.8 µM (inactive)	43.9 µM (inactive)	21.2 µM (inactive)	36.6 µM (inactive)	22 µM (inactive)	17.9 µM (inactive)	39.9 µM (inactive)	> 100 µM (inactive)	23.7 µM (inactive)	31.2 µM (inactive)	30.6 µM (inactive)	25.6 µM (inactive)	28.8 µM (inactive)	19.1 µM (inactive)	33.8 µM (inactive)
CC(=O)C1=C(C)N2C(=NC3=C(CCc4ccccc43)C2c2ccc(Cl)cc2)S1 (stereo unspecified)	> 100 µM (inactive)	8.41 µM (inactive)	5.85 µM (inactive)	29.2	> 64 µM (inactive)	> 43.1 µM (inactive)	16.1 µM (inactive)	> 36.1 µM (inactive)	10.2 µM (inactive)	> 87.9 µM (inactive)	> 100 µM (inactive)	> 100 µM (inactive)	> 100 µM (inactive)		5.53 µM (inactive)	> 100 µM (inactive)	> 78.5 µM (inactive)	> 53.7 µM (inactive)	4.42 µM (inactive)
COc1cc(/C=N/N=C2NCCCCN2)ccc1O		> 100 µM (inactive)	> 100 µM (inactive)	> 100	> 100 µM (inactive)	> 100 µM (inactive)	> 100 µM (inactive)	> 100 µM (inactive)	> 100 µM (inactive)	> 100 µM (inactive)	> 100 µM (inactive)	> 100 µM (inactive)	> 100 µM (inactive)	> 100 µM (inactive)	53.8 µM (inactive)	> 100 µM (inactive)	> 100 µM (inactive)	> 100 µM (inactive)	> 100 µM (inactive)
CC(=O)Nc1cc2cc(NS(=O)(=O)c3cc(C(F)(F)F)cc(C(F)(F)F)c3)ccc2oc1=O	> 100 µM (inactive)	> 100 µM (inactive)	> 100 µM (inactive)	> 100	> 100 µM (inactive)	> 100 µM (inactive)	> 100 µM (inactive)	> 100 µM (inactive)	> 100 µM (inactive)	32.6 µM (inactive)	> 100 µM (inactive)		> 100 µM (inactive)	> 100 µM (inactive)	> 100 µM (inactive)	> 100 µM (inactive)	> 100 µM (inactive)	> 100 µM (inactive)	> 100 µM (inactive)
CNc1ccc2c(c1)Cc1ccccc1-2	30.6 µM (inactive)	59.2 µM (inactive)	56.2 µM (inactive)	15.3	33.3 µM (inactive)	28.3 µM (inactive)	32.5 µM (inactive)	26.5 µM (inactive)	32.7 µM (inactive)	44 µM (inactive)	44.5 µM (inactive)		43.8 µM (inactive)	27 µM (inactive)	24.1 µM (inactive)	36.6 µM (inactive)	61.1 µM (inactive)	31.1 µM (inactive)	20.3 µM (inactive)
